Results from patent publication US20260166016A1, “GPR139 RECEPTOR AGONIST, PREPARATION METHOD THEREFOR, AND APPLICATION THEREOF” (NEUBO APPTECH CO., LTD., priority 2022, published 2026).

Test system: acutely restrained mice
Experiment: Acute restraint mouse stress model, plasma corticosterone (ELISA)
Type: in vivo
Conditions: male C57BL/6J mice, gavage 1, 5, 25 mg/kg, 30 minutes after administration and 3 hours of acute restraint, dose-dependent, FIG. 1
Protocol: Mouse: Male C57BL/6J; 8 weeks old; Weight: 20-25 g; Quantity: 40 pieces
Group 1, acute restraint+placebo group, 10 mice; the mice were divided into 2 cages, 5 mice per cage. On the morning of the day of the experiment, the mice in this group were subjected to acute restraint, during which they were fasted and deprived of water.
Group 2, acute restraint+low-dose of compound NRB181 group (1 mg/kg), 10 mice; the mice were divided into 2 cages, 5 mice per cage. On the morning of the day of the experiment, the mice in this group were subjected to acute restraint, during which they were fasted and deprived of water.
Group 3, acute restraint+moderate-dose of compound NRB181 group (5 mg/kg), 10 mice; the mice were divided into 2 cages, 5 mice per cage. On the morning of the day of the experiment, the mice in this group were subjected to acute restraint, during which they were fasted and deprived of water.
Group 4, acute restraint+high-dose of compound NRB181 group (25 mg/kg), 10 mice; the mice were divided into 2 cages, 5 mice per cage. On the morning of the day of the experiment, the mice in this group were subjected to acute restraint, during which they were fasted and deprived of water.
18.3.1 On the day before the experiment, a placebo was prepared: 1 mL of 100% DMSO and 9 mL of formula x solution was added. […]

**Q.** How did the “expression level of corticosterone” value turn out when `C[C@H](NC(=O)CNC(=O)c1cc(Cl)ccn1)c1c(F)cccc1F` [NRB181] was run?
**A.** Its value is “significantly reduced”.
